US20230391817A1, “5ALPHA-HYDROXY-6BETA-[2-(1-H-IMIDAZOL-4-YL)-ETHYLAMINO]-CHOLESTAN-3BETA-OL ANALOGUES AND PHARMACEUTICAL COMPOSITIONS COMPRISING SAME FOR USE IN THE TREATMENT OF CANCER” (priority 2020, published 2023)

System: Neuro2a (murine neuroblastoma) cells
Experiment: Cytotoxicity on Neuro2a cells, trypan blue test
Assay type: cell-based
Conditions: 48 h
Method: For this experiment, a cell culture medium was prepared. The culture medium consisted of Dulbecco's Modified Eagle Medium (DMEM, sold by Westburg under the reference LO BE12-604F), comprising 4.5 g/L glucose with L-glutamine, to which 10% fetal calf serum (FCS) is added. Neuro2a (murine neuroblastoma) cells are introduced into this culture medium.
24-well dishes were seeded with 10 000 Neuro2a cells per well. After 72 hours (h) of culture under normal conditions, i.e., in an incubator at 37° C. with 5% CO2, the Neuro2a cells were treated for 48 h with 3β-fluoro-5α-hydroxy-6β-[2-(1H-imidazol-4-yl)ethylamino]-cholestane and 5α-hydroxy-6β-[2-(1H-imidazol-4-yl)ethylamino]cholestan-3β-ol at 100 nM, 1 μM and 10 μM. A control (CTL) is also performed using the previously described protocol without treatment with […]-5α-hydroxy-6β-[2-(1H-imidazol-4-yl)ethylamino]-cholestane and 5α-hydroxy-6β-[2-(1H-imidazol-4-yl)ethylamino]cholestan-3β-ol. The cell survival was quantified by means of a trypan blue test with automatic counting using the Biorad TC20 machine (TC20™ Automated Cell Counter). The trypan blue test is based on the integrity of cell membranes, which is disrupted in the dead cells. Trypan blue stains dead cells blue. The Biorad TC20 cell counter counts the proportion of blue and non-blue cells, and reports the percentage of cells. The results are represented in FIG. 1.

SMILES: CC(C)CCC[C@@H](C)[C@H]1CC[C@H]2[C@@H]3C[C@@H](NCCc4c[nH]cn4)[C@@]4(O)C[C@@H](F)CC[C@]4(C)[C@H]3CC[C@]12C [DX111, 3β-fluoro-5α-hydroxy-6β-[2-(1H-imidazol-4-yl)ethylamino]cholestane]
- percentage of cell survival relative to the control group (100 nM): unchanged
- percentage of cell survival relative to the control group (1 μM): 75%
- percentage of cell survival relative to the control group (10 μM): 30%
